Among the data in ChEMBL document CHEMBL1909046, “DrugMatrix in vitro pharmacology data” are IC50 and Ki values, retold here.

Some targets named below: Cytochrome P450 2C9 (Homo sapiens, UniProt P11712); Cytochrome P450 2C19 (Homo sapiens, UniProt P33261); Cytochrome P450 2D6 (Homo sapiens, UniProt P10635).
In test [1] the target is T1, Androgen receptor (Rattus norvegicus, UniProt P15207).
T1 sequence (P15207 whole entry): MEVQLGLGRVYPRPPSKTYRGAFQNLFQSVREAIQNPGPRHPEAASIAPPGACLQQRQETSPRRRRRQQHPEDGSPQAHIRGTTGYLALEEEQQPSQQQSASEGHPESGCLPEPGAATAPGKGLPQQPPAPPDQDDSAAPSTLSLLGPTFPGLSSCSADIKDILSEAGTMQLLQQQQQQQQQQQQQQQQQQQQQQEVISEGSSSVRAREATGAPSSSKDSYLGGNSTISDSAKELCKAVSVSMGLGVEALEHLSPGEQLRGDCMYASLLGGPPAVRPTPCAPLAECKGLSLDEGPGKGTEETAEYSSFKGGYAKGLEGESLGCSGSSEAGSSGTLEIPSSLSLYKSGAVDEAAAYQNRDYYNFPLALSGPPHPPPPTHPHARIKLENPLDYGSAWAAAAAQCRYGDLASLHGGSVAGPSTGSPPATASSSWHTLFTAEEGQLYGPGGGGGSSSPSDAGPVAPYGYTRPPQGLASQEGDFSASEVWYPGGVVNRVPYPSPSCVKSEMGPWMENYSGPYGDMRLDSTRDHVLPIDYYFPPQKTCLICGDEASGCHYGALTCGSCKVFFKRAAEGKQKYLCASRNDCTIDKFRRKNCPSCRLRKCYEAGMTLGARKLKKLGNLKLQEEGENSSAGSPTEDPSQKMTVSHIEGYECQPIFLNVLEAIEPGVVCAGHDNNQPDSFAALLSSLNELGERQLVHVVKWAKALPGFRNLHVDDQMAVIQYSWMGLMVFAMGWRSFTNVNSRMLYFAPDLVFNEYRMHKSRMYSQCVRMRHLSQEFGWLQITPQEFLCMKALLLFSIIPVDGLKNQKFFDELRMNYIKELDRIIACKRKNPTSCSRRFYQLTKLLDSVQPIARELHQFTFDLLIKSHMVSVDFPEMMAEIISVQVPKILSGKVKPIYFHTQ

The target of test [2] is T1, Androgen receptor. The source holds these as a separate data set.
A further test addresses T2, Glucocorticoid receptor (Homo sapiens, UniProt P04150).
T2 sequence (P04150 whole entry): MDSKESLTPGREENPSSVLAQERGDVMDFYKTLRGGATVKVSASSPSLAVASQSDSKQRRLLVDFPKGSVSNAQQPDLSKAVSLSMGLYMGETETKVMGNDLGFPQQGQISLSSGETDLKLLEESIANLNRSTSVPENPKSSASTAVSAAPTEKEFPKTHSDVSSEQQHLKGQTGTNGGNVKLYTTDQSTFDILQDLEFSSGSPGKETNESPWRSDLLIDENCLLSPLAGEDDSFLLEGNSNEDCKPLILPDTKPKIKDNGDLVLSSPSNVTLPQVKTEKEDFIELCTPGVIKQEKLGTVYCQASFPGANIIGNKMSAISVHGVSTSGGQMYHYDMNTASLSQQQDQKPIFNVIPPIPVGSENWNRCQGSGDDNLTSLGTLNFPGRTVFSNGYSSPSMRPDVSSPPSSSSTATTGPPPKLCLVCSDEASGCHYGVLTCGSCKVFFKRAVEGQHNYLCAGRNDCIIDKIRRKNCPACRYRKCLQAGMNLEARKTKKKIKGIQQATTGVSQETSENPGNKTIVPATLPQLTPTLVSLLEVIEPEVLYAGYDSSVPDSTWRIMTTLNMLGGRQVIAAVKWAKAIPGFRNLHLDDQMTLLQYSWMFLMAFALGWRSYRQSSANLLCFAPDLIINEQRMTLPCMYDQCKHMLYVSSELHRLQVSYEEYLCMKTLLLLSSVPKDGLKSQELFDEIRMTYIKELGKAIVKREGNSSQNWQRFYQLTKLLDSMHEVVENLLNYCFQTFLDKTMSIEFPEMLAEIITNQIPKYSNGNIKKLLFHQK
Description: biochemical.

The target in a further test is T3, Cytochrome P450 1A2 (Homo sapiens, UniProt P05177).
T3 sequence (P05177 whole entry): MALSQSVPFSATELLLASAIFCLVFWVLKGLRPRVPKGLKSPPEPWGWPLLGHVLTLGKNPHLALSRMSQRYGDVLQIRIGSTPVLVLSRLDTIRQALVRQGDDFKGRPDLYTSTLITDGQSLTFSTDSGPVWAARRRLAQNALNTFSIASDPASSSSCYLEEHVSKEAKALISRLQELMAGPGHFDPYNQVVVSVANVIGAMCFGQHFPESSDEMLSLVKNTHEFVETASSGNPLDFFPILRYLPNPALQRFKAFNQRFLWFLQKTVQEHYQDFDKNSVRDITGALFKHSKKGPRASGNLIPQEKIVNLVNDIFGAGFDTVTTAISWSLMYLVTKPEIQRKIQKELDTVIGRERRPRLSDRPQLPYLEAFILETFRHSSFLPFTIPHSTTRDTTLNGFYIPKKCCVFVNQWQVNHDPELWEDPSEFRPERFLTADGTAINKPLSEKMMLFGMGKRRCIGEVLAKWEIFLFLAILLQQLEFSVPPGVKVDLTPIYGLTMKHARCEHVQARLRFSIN

The next test concerns the target T4, Estrogen receptor (Homo sapiens, UniProt P03372).
T4 sequence (P03372 whole entry): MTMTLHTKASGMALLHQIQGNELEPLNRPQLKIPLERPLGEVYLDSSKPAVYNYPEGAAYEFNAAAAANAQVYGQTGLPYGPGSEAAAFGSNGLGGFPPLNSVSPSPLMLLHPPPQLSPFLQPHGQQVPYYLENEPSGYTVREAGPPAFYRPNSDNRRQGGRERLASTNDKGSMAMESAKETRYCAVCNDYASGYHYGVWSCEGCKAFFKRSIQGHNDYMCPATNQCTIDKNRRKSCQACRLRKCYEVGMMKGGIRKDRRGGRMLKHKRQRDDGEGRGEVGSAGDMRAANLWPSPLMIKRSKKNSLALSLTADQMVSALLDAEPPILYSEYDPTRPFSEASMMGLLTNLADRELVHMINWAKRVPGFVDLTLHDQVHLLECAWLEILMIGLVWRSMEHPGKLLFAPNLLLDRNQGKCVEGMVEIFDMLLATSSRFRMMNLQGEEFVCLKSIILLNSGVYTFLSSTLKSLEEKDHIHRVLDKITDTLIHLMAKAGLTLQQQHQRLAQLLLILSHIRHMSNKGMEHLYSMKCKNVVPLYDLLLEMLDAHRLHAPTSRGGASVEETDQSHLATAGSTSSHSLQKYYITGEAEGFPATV
Description: biochemical.
Further: in other assays of this panel Not Active means under 50% inhibition at 10 µM.

Sequence of Cytochrome P450 2D6 (P10635 whole entry): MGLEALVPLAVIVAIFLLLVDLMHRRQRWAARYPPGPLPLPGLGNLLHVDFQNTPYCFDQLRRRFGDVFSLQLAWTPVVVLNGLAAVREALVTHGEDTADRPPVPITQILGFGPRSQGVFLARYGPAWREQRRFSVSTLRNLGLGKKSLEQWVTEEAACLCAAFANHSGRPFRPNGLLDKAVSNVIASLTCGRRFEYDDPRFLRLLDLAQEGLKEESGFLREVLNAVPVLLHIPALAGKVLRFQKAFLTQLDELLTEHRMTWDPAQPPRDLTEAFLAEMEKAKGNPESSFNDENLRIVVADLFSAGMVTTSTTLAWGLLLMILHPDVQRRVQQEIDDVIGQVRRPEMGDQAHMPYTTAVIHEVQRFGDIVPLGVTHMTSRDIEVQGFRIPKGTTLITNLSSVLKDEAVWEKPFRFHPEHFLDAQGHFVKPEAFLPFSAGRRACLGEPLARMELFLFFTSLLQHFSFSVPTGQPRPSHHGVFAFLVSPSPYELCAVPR
Sequence of Cytochrome P450 2C9 (P11712 whole entry): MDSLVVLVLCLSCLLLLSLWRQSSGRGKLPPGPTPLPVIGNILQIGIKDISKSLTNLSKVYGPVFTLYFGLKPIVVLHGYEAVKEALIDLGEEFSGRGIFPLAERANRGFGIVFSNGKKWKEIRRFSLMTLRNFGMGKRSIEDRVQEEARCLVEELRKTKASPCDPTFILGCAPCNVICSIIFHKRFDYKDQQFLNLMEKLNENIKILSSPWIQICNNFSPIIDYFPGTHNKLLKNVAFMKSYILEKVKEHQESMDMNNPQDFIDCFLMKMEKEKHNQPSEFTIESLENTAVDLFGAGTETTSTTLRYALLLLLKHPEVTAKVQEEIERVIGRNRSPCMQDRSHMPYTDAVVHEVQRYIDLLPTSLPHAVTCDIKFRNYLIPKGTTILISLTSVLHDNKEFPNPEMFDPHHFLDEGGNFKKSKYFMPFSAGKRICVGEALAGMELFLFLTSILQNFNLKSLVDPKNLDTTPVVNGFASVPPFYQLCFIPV
Sequence of Cytochrome P450 2C19 (P33261 whole entry): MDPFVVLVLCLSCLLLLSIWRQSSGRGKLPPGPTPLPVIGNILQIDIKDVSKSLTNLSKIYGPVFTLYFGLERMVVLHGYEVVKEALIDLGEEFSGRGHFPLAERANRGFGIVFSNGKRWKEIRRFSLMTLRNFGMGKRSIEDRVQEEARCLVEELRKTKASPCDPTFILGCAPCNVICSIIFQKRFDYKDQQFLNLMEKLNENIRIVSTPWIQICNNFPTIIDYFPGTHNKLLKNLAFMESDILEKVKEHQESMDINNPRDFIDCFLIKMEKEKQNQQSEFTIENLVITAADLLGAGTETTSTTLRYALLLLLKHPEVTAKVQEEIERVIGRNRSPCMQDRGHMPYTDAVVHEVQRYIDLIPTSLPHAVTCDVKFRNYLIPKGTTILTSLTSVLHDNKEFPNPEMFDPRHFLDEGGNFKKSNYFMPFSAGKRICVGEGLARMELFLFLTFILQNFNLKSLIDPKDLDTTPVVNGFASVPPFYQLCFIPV

As to `COc1ccccc1C(=O)N1CCC(Cc2ccccc2)CC1`, the IC50 was 2000 nM at Cytochrome P450 2C9, 800 nM against Cytochrome P450 2C19 and “Not Active” against Androgen receptor [1]. Regarding `Cc1ccccc1C(=O)N1CCC(Cc2ccccc2)CC1`, the IC50 against Cytochrome P450 2C9 was 1000 nM; on Cytochrome P450 2C19, 600 nM; on Androgen receptor [1], “Not Active”. Compound `N=C(Nc1ccccc1)Nc1ccccc1` registered an IC50 against Cytochrome P450 2D6 of 3440 nM. On to `S=C=Nc1cccc2ccccc12` [1-NAPHTHYLISOTHIOCYANATE], for which the IC50 was 25500 nM at Androgen receptor [2], 15400 nM against Glucocorticoid receptor and 1000 nM on Cytochrome P450 1A2. Also, the Ki is 17000 nM at Androgen receptor [2] and 7000 nM on Glucocorticoid receptor. As for `C[C@](O)(CS(=O)(=O)c1ccc(F)cc1)C(=O)Nc1ccc(C#N)c(C(F)(F)F)c1` [(R)-BICALUTAMIDE], half-maximal inhibition against Cytochrome P450 2C19 (IC50) was put at 1000 nM.

On to `CC(=O)Nc1ccc(O)cc1` [ACETAMINOPHEN], for which the IC50 entry against Androgen receptor [1] is listed as “Not Active”. With `COc1cc2c(c3oc(=O)c4c(c13)CCC4=O)[C@@H]1C=CO[C@@H]1O2` [AFLATOXIN], on Androgen receptor [1], the IC50 result is “Not Active” and the Ki result is listed as “Not Active”.

Turning to `Cc1cc(=O)n(-c2ccccc2)n1C` [ANTIPYRINE], the IC50 result at Androgen receptor [1] is on record as “Not Active”. On to `CCCCN1CCCCC1C(=O)Nc1c(C)cccc1C.Cl` (stereo not given) [BUPIVACAINE HYDROCHLORIDE], for which the values for the IC50 on Cytochrome P450 2D6 and on Androgen receptor [1] were 400 nM and “Not Active”, respectively.

As to `O=C1CC2(CCCC2)CC(=O)N1CCCCN1CCN(c2ncccn2)CC1` [BUSPIRONE], the IC50 entry against Androgen receptor [1] is “Not Active”. Turning to `O=NN(CCCl)C(=O)NCCCl` [CARMUSTINE], on Androgen receptor [1], the IC50 result is reported as “Not Active”. Regarding `CC(=O)OCC(=O)[C@@]1(O)CC[C@H]2[C@@H]3CCC4=CC(=O)CC[C@]4(C)[C@H]3C(=O)C[C@@]21C` [CORTISONE ACETATE], the IC50 result against Androgen receptor [1] is on record as “Not Active”. Consider `O=C(O)Cc1ccccc1Nc1c(Cl)cccc1Cl` [DICLOFENAC], for which, on Androgen receptor [1], the IC50 result was “Not Active”. Turning to `C[C@H]1O[C@@H](O[C@H]2[C@@H](O)C[C@H](O[C@H]3[C@@H](O)C[C@H](O[C@H]4CC[C@@]5(C)[C@H](CC[C@@H]6[C@@H]5CC[C@]5(C)[C@@H](C7=CC(=O)OC7)CC[C@]65O)C4)O[C@@H]3C)O[C@@H]2C)C[C@H](O)[C@@H]1O` [DIGITOXIN], the IC50 result on Androgen receptor [1] is on record as “Not Active”. Regarding `CCN1CC(CCN2CCOCC2)C(c2ccccc2)(c2ccccc2)C1=O` (stereo not given) [DOXAPRAM], inhibition against Cytochrome P450 2D6 was half-maximal at 100 nM (IC50). With `Cn1c(=O)c2c(ncn2CC2OCCO2)n(C)c1=O` [DOXOFYLLINE], the IC50 entry against Androgen receptor [1] is “Not Active”.

`C[C@]12CC[C@@H]3c4ccc(OC(=O)c5ccccc5)cc4CC[C@H]3[C@@H]1CC[C@@H]2O` [ESTRADIOL BENZOATE]: the results for the IC50 on Estrogen receptor, on Androgen receptor [2] and at Glucocorticoid receptor were 65 nM, 10 nM and 5070 nM, respectively. Besides, the Ki at Estrogen receptor amounted to 18 nM; on Androgen receptor [2], 6.98 nM; at Glucocorticoid receptor, 2310 nM. At Glucocorticoid receptor, `CC1(C)O[C@@H]2C[C@H]3[C@@H]4C[C@H](F)C5=CC(=O)C=C[C@]5(C)[C@H]4[C@@H](O)C[C@]3(C)[C@]2(C(=O)CO)O1` [FLUNISOLIDE] had an IC50 of 5.33 nM and a Ki of 2.42 nM. Taken in the same sequence, the figures for `CC1(C)O[C@@H]2C[C@H]3[C@@H]4C[C@H](F)C5=CC(=O)C=C[C@]5(C)[C@@]4(F)[C@@H](O)C[C@]3(C)[C@]2(C(=O)CO)O1` [FLUOCINOLONE ACETONIDE] were 3.13 nM and 1.42 nM. At Glucocorticoid receptor, `CC1(C)O[C@@H]2C[C@H]3[C@@H]4C[C@H](F)C5=CC(=O)CC[C@]5(C)[C@H]4[C@@H](O)C[C@]3(C)[C@]2(C(=O)CO)O1` [FLURANDRENOLIDE] returned an IC50 of 4.45 nM and a Ki of 2.02 nM. At Cytochrome P450 2D6, `CN(C)c1ccc(C(=C2C=CC(=[N+](C)C)C=C2)c2ccc(N(C)C)cc2)cc1.[Cl-]` [GENTIAN VIOLET] came in with an IC50 of 824 nM. At Androgen receptor [2], the IC50 stood at 5570 nM and the affinity, expressed as Ki, was 3710 nM.

`COc1ccc2c(c1)c(CC(=O)O)c(C)n2C(=O)c1ccc(Cl)cc1` [INDOMETHACIN]: at Androgen receptor [1], the IC50 entry is reported as “Not Active”.

On Estrogen receptor, `C#C[C@]1(O)CC[C@H]2[C@@H]3CCc4cc(OC)ccc4[C@H]3CC[C@@]21C` [MESTRANOL] returned an IC50 of 18 nM and a Ki of 5.22 nM. For `CC(=O)Nc1cccc(O)c1` [METACETAMOL], the IC50 at Cytochrome P450 1A2 was found to be 2000 nM. This counts as single-digit micromolar.

With `Oc1ccc(OCc2ccccc2)cc1` [MONOBENZONE], the IC50 result against Androgen receptor [1] is “Not Active”. Still for that read-out and setting: to `CC(C)(Oc1ccc(C2CCCc3ccccc32)cc1)C(=O)O` (stereo not given) [NAFENOPIN] belongs “Not Active”. For the compound `CCOC(=O)C1=C(C)NC(C)=C(C(=O)OC)C1c1cccc([N+](=O)[O-])c1` (stereo not given) [NITRENDIPINE], the IC50 against Cytochrome P450 2C9 is 300 nM; at Cytochrome P450 2C19, 3000 nM.

Take `C#C[C@]1(OC(C)=O)CC[C@H]2[C@@H]3CCC4=CC(=O)CC[C@@H]4[C@H]3CC[C@@]21C` [NORETHINDRONE ACETATE]: on Glucocorticoid receptor, half-maximal inhibition (IC50) was put at 646 nM and the Ki was determined as 293 nM. On Cytochrome P450 2C19, this compound displayed an IC50 of 800 nM. The compound `OC(CCN1CCCCC1)(c1ccccc1)C1CCCCC1` (stereo not given) [TRIHEXYPHENIDYL] came in with an IC50 on Cytochrome P450 2D6 of 2450 nM. For CADMIUM DICHLORIDE, on Androgen receptor [1], the IC50 entry is recorded as “Not Active” and the Ki entry is “Not Active”.
